{
  "source": "ChEMBL document CHEMBL2150993",
  "about": "“Substituted thiazoles VII. Synthesis and antitumor activity of certain 2-(substituted amino)-4-phenyl-1,3-thiazole analogs” (2012)",
  "assay_type_in_all_cases": "functional",
  "key": {"[1]": {"assay": "Antiproliferative activity against human CNS cancer cells after 48 hrs by cell counting analysis", "details": "Cancer cell lines"}, "[2]": {"tested_on": "RXF 393", "assay": "Growth inhibition of human RXF393 cells after 48 hrs by cell counting analysis"}, "[3]": {"tested_on": "OVCAR-3", "assay": "Growth inhibition of human OVCAR3 cells after 48 hrs by cell counting analysis", "details": "at 10 µM"}, "[4]": {"tested_on": "CAKI-1", "assay": "Growth inhibition of human Caki1 cells after 48 hrs by cell counting analysis", "details": "at 10 µM"}, "[5]": {"tested_on": "MCF7", "assay": "Growth inhibition of human MCF7 cells after 48 hrs by cell counting analysis", "details": "at 10 µM"}, "[6]": {"tested_on": "SK-OV-3", "assay": "Growth inhibition of human SKOV3 cells after 48 hrs by cell counting analysis", "details": "at 10 µM"}, "[7]": {"tested_on": "K562", "assay": "Growth inhibition of human K562 cells after 48 hrs by cell counting analysis", "details": "at 10 µM"}, "[8]": {"tested_on": "LOX IMVI", "assay": "Growth inhibition of human LOXIMVI cells after 48 hrs by cell counting analysis", "details": "at 10 µM"}, "[9]": {"tested_on": "UACC-257", "assay": "Growth inhibition of human UACC257 cells after 48 hrs by cell counting analysis", "details": "at 10 µM"}, "[10]": {"tested_on": "HOP-92", "assay": "Growth inhibition of human HOP92 cells after 48 hrs by cell counting analysis"}, "[11]": {"tested_on": "OVCAR-8", "assay": "Growth inhibition of human OVCAR8 cells after 48 hrs by cell counting analysis", "details": "at 10 µM"}, "[12]": {"tested_on": "SF-268", "assay": "Growth inhibition of human SF268 cells after 48 hrs by cell counting analysis", "details": "at 10 µM"}, "[13]": {"tested_on": "T47D", "assay": "Growth inhibition of human T47D cells after 48 hrs by cell counting analysis", "details": "at 10 µM"}, "[14]": {"tested_on": "UACC-62", "assay": "Growth inhibition of human UACC62 cells after 48 hrs by cell counting analysis", "details": "at 10 µM"}, "[15]": {"tested_on": "U-251", "assay": "Growth inhibition of human U251 cells after 48 hrs by cell counting analysis", "details": "at 10 µM"}, "[16]": {"tested_on": "SR", "assay": "Growth inhibition of human SR cells after 48 hrs by cell counting analysis", "details": "at 10 µM"}, "[17]": {"tested_on": "HCT-15", "assay": "Growth inhibition of human HCT15 cells after 48 hrs by cell counting analysis", "details": "at 10 µM"}, "[18]": {"tested_on": "NCI-H23", "assay": "Growth inhibition of human NCI-H23 cells after 48 hrs by cell counting analysis", "details": "at 10 µM"}, "[19]": {"tested_on": "SK-MEL-28", "assay": "Growth inhibition of human SK-MEL-28 cells after 48 hrs by cell counting analysis", "details": "at 10 µM"}, "[20]": {"tested_on": "MOLT-4", "assay": "Growth inhibition of human MOLT4 cells after 48 hrs by cell counting analysis", "details": "at 10 µM"}, "[21]": {"tested_on": "M14", "assay": "Growth inhibition of human M14 cells after 48 hrs by cell counting analysis", "details": "at 10 µM"}, "[22]": {"assay": "Antiproliferative activity against human melanoma cells after 48 hrs by cell counting analysis"}, "[23]": {"tested_on": "SF-295", "assay": "Growth inhibition of human SF295 cells after 48 hrs by cell counting analysis", "details": "at 10 µM"}, "[24]": {"tested_on": "A549", "assay": "Growth inhibition of human A549 cells after 48 hrs by cell counting analysis", "details": "at 10 µM"}, "[25]": {"tested_on": "MDA-MB-435", "assay": "Growth inhibition of human MDA-MB-435 cells after 48 hrs by cell counting analysis", "details": "at 10 µM"}, "[26]": {"assay": "Antiproliferative activity against human leukemia cells after 48 hrs by cell counting analysis"}, "[27]": {"tested_on": "HOP-62", "assay": "Growth inhibition of human HOP62 cells after 48 hrs by cell counting analysis", "details": "at 10 µM"}, "[28]": {"tested_on": "KM12", "assay": "Growth inhibition of human KM12 cells after 48 hrs by cell counting analysis", "details": "at 10 µM"}, "[29]": {"tested_on": "HT-29", "assay": "Growth inhibition of human HT-29 cells after 48 hrs by cell counting analysis", "details": "at 10 µM"}, "[30]": {"tested_on": "SN12C", "assay": "Growth inhibition of human SN12C cells after 48 hrs by cell counting analysis", "details": "at 10 µM"}, "[31]": {"tested_on": "NCI-H522", "assay": "Growth inhibition of human NCI-H522 cells after 48 hrs by cell counting analysis", "details": "at 10 µM"}, "[32]": {"tested_on": "RPMI-8226", "assay": "Growth inhibition of human RPMI8226 cells after 48 hrs by cell counting analysis", "details": "at 10 µM"}, "[33]": {"assay": "Growth inhibition of human NCI-322M cells after 48 hrs by cell counting analysis", "details": "at 10 µM"}, "[34]": {"tested_on": "SW-620", "assay": "Growth inhibition of human SW620 cells after 48 hrs by cell counting analysis", "details": "at 10 µM"}, "[35]": {"tested_on": "SK-MEL-2", "assay": "Growth inhibition of human SK-MEL-2 cells after 48 hrs by cell counting analysis", "details": "at 10 µM"}, "[36]": {"tested_on": "IGROV-1", "assay": "Growth inhibition of human IGROV1 cells after 48 hrs by cell counting analysis", "details": "at 10 µM"}, "[37]": {"details": "read-out: LC50 (the source's name)"}},
  "note": "Calls of active or inactive are those of the source. No cut-off for these calls is given here.",
  "data": [
    {"molecule": "O=C(CCCl)Nc1nc(-c2ccc(Cl)cc2)cs1", "values": [
      {"measurement": "TGI", "setting": "[1]", "value": 14.7, "unit": "µM"},
      {"measurement": "CC50", "setting": "[1]; [37]", "value": 50.9, "unit": "µM"},
      {"measurement": "growth inhibition (GI)", "setting": "[2]", "value": "Active"},
      {"measurement": "growth inhibition (GI)", "setting": "[3]", "value": 89.8, "unit": "%"},
      {"measurement": "growth inhibition (GI)", "setting": "[4]", "value": 52.5, "unit": "%"},
      {"measurement": "growth inhibition (GI)", "setting": "[5]", "value": 55.8, "unit": "%"},
      {"measurement": "growth inhibition (GI)", "setting": "[6]", "value": 25.7, "unit": "%"},
      {"measurement": "growth inhibition (GI)", "setting": "[7]", "value": 63, "unit": "%"},
      {"measurement": "growth inhibition (GI)", "setting": "[8]", "value": 43.1, "unit": "%"},
      {"measurement": "growth inhibition (GI)", "setting": "[9]", "value": 43, "unit": "%"},
      {"measurement": "growth inhibition (GI)", "setting": "[10]", "value": "Active"},
      {"measurement": "growth inhibition (GI)", "setting": "[11]", "value": 52.8, "unit": "%"},
      {"measurement": "growth inhibition (GI)", "setting": "[12]", "value": 51.7, "unit": "%"},
      {"measurement": "growth inhibition (GI)", "setting": "[13]", "value": 52.1, "unit": "%"},
      {"measurement": "growth inhibition (GI)", "setting": "[14]", "value": 38.7, "unit": "%"},
      {"measurement": "growth inhibition (GI)", "setting": "[15]", "value": 55.4, "unit": "%"},
      {"measurement": "growth inhibition (GI)", "setting": "[16]", "value": 77.7, "unit": "%"},
      {"measurement": "growth inhibition (GI)", "setting": "[17]", "value": 61.4, "unit": "%"},
      {"measurement": "growth inhibition (GI)", "setting": "[18]", "value": 29, "unit": "%"},
      {"measurement": "growth inhibition (GI)", "setting": "[19]", "value": 21.2, "unit": "%"},
      {"measurement": "growth inhibition (GI)", "setting": "[20]", "value": 61.3, "unit": "%"},
      {"measurement": "growth inhibition (GI)", "setting": "[21]", "value": 44.7, "unit": "%"},
      {"measurement": "GI50", "setting": "[22]", "value": 3.2, "unit": "µM"},
      {"measurement": "TGI", "setting": "[22]", "value": 13.1, "unit": "µM"},
      {"measurement": "CC50", "setting": "[22]; [37]", "value": 47.6, "unit": "µM"},
      {"measurement": "growth inhibition (GI)", "setting": "[23]", "value": 29.8, "unit": "%"},
      {"measurement": "growth inhibition (GI)", "setting": "[24]", "value": 39.9, "unit": "%"},
      {"measurement": "growth inhibition (GI)", "setting": "[25]", "value": 68.1, "unit": "%"},
      {"measurement": "GI50", "setting": "[26]", "value": 2.2, "unit": "µM"},
      {"measurement": "TGI", "setting": "[26]", "value": 8.9, "unit": "µM"},
      {"measurement": "CC50", "setting": "[26]; [37]", "value": 90.2, "unit": "µM"},
      {"measurement": "growth inhibition (GI)", "setting": "[27]", "value": 49, "unit": "%"},
      {"measurement": "growth inhibition (GI)", "setting": "[28]", "value": 43.8, "unit": "%"},
      {"measurement": "growth inhibition (GI)", "setting": "[29]", "value": 78, "unit": "%"},
      {"measurement": "growth inhibition (GI)", "setting": "[30]", "value": 48.3, "unit": "%"},
      {"measurement": "growth inhibition (GI)", "setting": "[31]", "value": 95.6, "unit": "%"},
      {"measurement": "growth inhibition (GI)", "setting": "[32]", "value": 92.8, "unit": "%"},
      {"measurement": "growth inhibition (GI)", "setting": "[33]", "value": 16.9, "unit": "%"},
      {"measurement": "growth inhibition (GI)", "setting": "[34]", "value": 76, "unit": "%"},
      {"measurement": "growth inhibition (GI)", "setting": "[35]", "value": 72.7, "unit": "%"},
      {"measurement": "growth inhibition (GI)", "setting": "[36]", "value": 48.9, "unit": "%"}
    ]}
  ]
}
